{"source": "paper PMC12818745", "about": "(ACS Chemical Neuroscience, 2025)", "key": {"Aβ42 aggregation": {"target": "T1, Aβ42 aggregation (Homo sapiens, UniProt P05067)", "T1 construct": "expressed in transfected cells; host or cells: E. coli BL21 (DE3), pET vector", "T1 sequence (P05067 672-713)": "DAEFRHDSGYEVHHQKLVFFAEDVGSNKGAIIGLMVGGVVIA", "assay": "Thioflavin S assay of Aβ42 aggregation in E. coli cells overexpressing Aβ42", "assay_type": "cell-based, Escherichia coli", "details": "read-out: Aβ42 inhibition %", "description": "The antiaggregating profiles of both series A and B were evaluated using a fluorescence Thioflavin S (ThS) assay in cellulo, which monitors ThS fluorescence in the presence of β-sheet-rich structures, such as Aβ and tau protein aggregates. This method, based on recombinant Escherichia coli (E. coli) bacteria overexpressing insoluble aggregates, offers a simple and cost-effective approach to model aggregation processes in mammalian systems and has been validated for use in drug discovery studies. , Compounds were tested at a screening concentration of 50 μM for their ability to inhibit Aβ42 aggregation. The results, summarized in Table , reveal distinct antiaggregating profiles between series A and B, which are once again influenced by their structural differences.\n42 Amino acid Aβ42 was cloned and overexpressed in E. coli BL21 (DE3) competent cells using the pET vector harboring the DNA sequence of Aβ42. Due to the addition of the initiation codon ATG preceding genes, the resulting overexpressed peptide contained an additional methionine residue at its N-terminus. For the preparation of overnight cultures, a colony of BL21 (DE3) cells carrying the plasmid for expression was inoculated in 10 mL of M9 minimal medium supplemented with 50 μg mL^–1 kanamycin at 37 °C. Subsequently, a 1:500 dilution of the overnight culture was added to fresh M9 minimal medium containing 50 μg mL^–1 kanamycin and 25 μM ThS. The bacterial culture was then incubated at 37 °C with agitation at 250 rpm. Upon reaching an OD600 of 0.6, 980 μL of the culture was transferred into 1.5 mL Eppendorf tubes, each containing 10 μL of the compound to be tested dissolved in DMSO and 10 μL of 100 mM isopropyl 1-thio-β-D-galactopyranoside (IPTG) or, alternatively, 10 μL of water for the noninduced controls. The final compound concentration was adjusted to […]. The samples were allowed to grow overnight at 37 °C with agitation at 1400 rpm using a Thermomixer (Eppendorf). Negative controls, representing maximum amyloid presence, utilized free DMSO.\nThS (T1892) and all other chemical reagents were purchased from Sigma (St. Louis, MO). Stock solutions of ThS (250 μM) were prepared using doubly distilled water purified via a Milli-Q system (Millipore). For the fluorescence assay, ThS spectra were recorded utilizing an AmincoBowman series 2 luminescence spectrophotometer (Aminco-Bowman AB2, SLM Aminco, Rochester, NY) within the range of 460 to 600 nm at a temperature of 25 °C. The excitation wavelength employed was 445 nm, with slit widths set at 4 nm. The emission at 485 nm, corresponding to the ThS peak observed in the presence of amyloids, was recorded. To standardize ThS fluorescence relative to bacterial concentration in both in vitro and cell-based assays, the OD600 was determined using a Shimadzu UV-2401 PC UV–vis spectrophotometer. Fluorescence normalization was executed by setting the ThS fluorescence of bacterial cells expressing the peptide or protein in the absence of the drug as 100%, while that of bacterial cells not expressing the peptide or protein was established as 0%."}, "[1]": {"system": "Aβ42 aggregates in SH-SY5Y (SHwt) cells", "assay": "Confocal microscopy (ThT) of Aβ42 aggregates in SH-SY5Y cells expressing APP695", "details": "25 μM compound with Aβ42 10 μM, 48 h", "procedure": "A stock solution of Aβ42 (GenScript) was prepared in DMSO to a concentration of 2000 μM. SH-SY5Y cells stably expressing wild-type APP695 (SHwt) were used. The cells were cultured in Dulbecco’s Modified Eagle Medium (DMEM, Gibco), supplemented with 10% of Fetal Bovine Serum (FBS, Sigma-Aldrich), and 2% of Pen-Strep-Glut (Gibco). […] 2.0 × 10^4 SH-WT cells were plated in 24-well plates and incubated for 24 h, in 12 ømm glass coverslips. […] Cells incubated with Aβ42 and 1% DMSO were used as the positive control. After this period, the medium was changed to fresh DMEM medium without FBS, and the cells were incubated for another 24 h. After the incubation period, cells were washed with PBS, fixed in 4% formaldehyde for 30 min, permeabilized with 0.2% Triton X-100 in PBS for 10 min and blocked with 1% BSA for 10 min. […] Cells were washed three times between each step. Coverslips with cells were mounted with CitiFluor MWL4–88 (Electron Microscopy Sciences)."}, "Aβ42 peptide": {"target": "T2, Aβ42 peptide (Homo sapiens, UniProt P05067)", "T2 construct": "Synthetic Aβ42 (GenScript) was dissolved in hexafluoro-2-propanol (HFIP); purchased GenScript; host or cells: chemical synthesis", "T2 sequence (P05067 672-713 limits assumed)": "as the sequence (P05067 672-713) above", "assay": "TEM of Aβ42 fibril growth", "details": "Aβ42 10 μM, compound 50 μM, 6–48 h, 37 °C", "description": "We selected compound 11r for further investigation of its ability to interfere with the Aβ42 aggregation process in vitro. The decision was based on the structural potential of the chromeno[3,4-b]-xanthone scaffold, the encouraging results for 11r, and its overall profile in our preliminary studies. […] The morphological changes of Aβ42 species were assessed through transmission electron microscopy (TEM), in the presence and absence of 11r. […] In the absence of 11r (Figure , top panels), as early as 6 h of incubation at 37 °C, (white arrow), short (white arrowhead) and long fibrils were detected. As incubation progressed, long fibrils were more abundant, while other species became scarce, resulting in bundles of tangled fibrils after 48 h (Figure ).\nSynthetic Aβ42 (GenScript) was dissolved in hexafluoro-2-propanol (HFIP) (Merck) and left at room temperature (RT) for 48 h. Subsequently, the HFIP was removed using a stream of nitrogen, and the resulting powder was dissolved in dimethyl sulfoxide (DMSO) (Sigma-Aldrich) at a concentration of 2000 μM. […]\nThe βnalysis of the morphology and fibril formation of samples coincubated with Aβ42 (10 μM) (GenScript) and the selected compounds (50 μM) at different time-points (6, 12, 24, and 48 h) at 37 °C, was assessed through TEM. […]"}}, "data": [{"compound": "C#CCN(CC#C)c1ccccc1/C=C/c1cc(=O)c2ccccc2o1", "note": "[Compound 10, (E)-2-{2-[Di(prop-2-yn-1-yl)amino]styryl}-4H-chromen-4-one]", "values": [{"measurement": "inhibition at 50 µM", "setting": "Aβ42 aggregation", "result": "36 ± 18.3", "unit": "%"}]}, {"compound": "COc1ccc2c(=O)c3cc4c(cc3oc2c1)-c1cc(Cl)ccc1OC4", "note": "[Compound 11r, 2-Chloro-11-methoxy-6H,8H-chromeno[3,4-b]xanthen-8-one]", "values": [{"measurement": "inhibition at 50 µM", "setting": "Aβ42 aggregation", "result": "57 ± 5.7", "unit": "%"}, {"measurement": "Reduction in intracellular Aβ42 aggregates (ThT fluorescence)", "setting": "[1]", "result": "approximately 70%"}, {"measurement": "Effect on Aβ42 fibril morphology (TEM)", "setting": "Aβ42 peptide", "result": "inhibiting Aβ42 fibrillogenesis"}]}]}
